Experimental data from the supplement of paper PMC13380429.

How the values were obtained:
Conditions in all cases: 72 h
U2OS [1] = assay: drug sensitivity score (DSS) for viability; higher = more toxic; extreme values may be limits of the assay
Vero E6 [2] = assay: as above
Calu-3 [3] = assay: as above
Caco-2 [4] = assay: as above
HepG2 [5] = assay: as above
Vero E6 [6] = assay: relative viability EC50 (midpoint between 100% and the lowest measured viability); higher = less toxic
Calu-3 [7] = assay: as above
HepG2 [8] = assay: as above
U2OS [9] = assay: cell viability relative to DMSO; higher = less toxic
Vero E6 [10] = assay: as above
Calu-3 [11] = assay: as above
Caco-2 [12] = assay: as above
HepG2 [13] = assay: as above
U2OS [14] = assay: relative viability EC50 (midpoint between 100% and the lowest measured viability); higher = less toxic

| Structure (SMILES) | drug sensitivity score (U2OS [1]) | drug sensitivity score (Vero E6 [2]) | drug sensitivity score (Calu-3 [3]) | drug sensitivity score (Caco-2 [4]) | drug sensitivity score (HepG2 [5]) | relative viability EC50 (Vero E6 [6]) [µM] | relative viability EC50 (Calu-3 [7]) [µM] | relative viability EC50 (HepG2 [8]) [µM] | cell viability (U2OS [9]; 1 nM) [%] | cell viability (U2OS [9]; 10 nM) [%] | cell viability (U2OS [9]; 100 nM) [%] | cell viability (U2OS [9]; 1000 nM) [%] | cell viability (U2OS [9]; 10000 nM) [%] | cell viability (Vero E6 [10]; 1 nM) [%] | cell viability (Vero E6 [10]; 10 nM) [%] | cell viability (Vero E6 [10]; 100 nM) [%] | cell viability (Vero E6 [10]; 1000 nM) [%] | cell viability (Vero E6 [10]; 10000 nM) [%] | cell viability (Calu-3 [11]; 1 nM) [%] | cell viability (Calu-3 [11]; 10 nM) [%] | cell viability (Calu-3 [11]; 100 nM) [%] | cell viability (Calu-3 [11]; 1000 nM) [%] | cell viability (Calu-3 [11]; 10000 nM) [%] | cell viability (Caco-2 [12]; 1 nM) [%] | cell viability (Caco-2 [12]; 10 nM) [%] | cell viability (Caco-2 [12]; 100 nM) [%] | cell viability (Caco-2 [12]; 1000 nM) [%] | cell viability (Caco-2 [12]; 10000 nM) [%] | cell viability (HepG2 [13]; 1 nM) [%] | cell viability (HepG2 [13]; 10 nM) [%] | cell viability (HepG2 [13]; 100 nM) [%] | cell viability (HepG2 [13]; 1000 nM) [%] | cell viability (HepG2 [13]; 10000 nM) [%] | relative viability EC50 (U2OS [14]) [µM] |
| --- | --- | --- | --- | --- | --- | --- | --- | --- | --- | --- | --- | --- | --- | --- | --- | --- | --- | --- | --- | --- | --- | --- | --- | --- | --- | --- | --- | --- | --- | --- | --- | --- | --- | --- |
| O=C1C2CCN(CC2)C1(CO)CO [PRIMA1] | 1.6 | 0 | 0.6 | 2.1 | 0 | > 10 | > 10 | > 10 | 98.8 | 95.7 | 101 | 98.1 | 70 | 87 | 92.6 | 89.6 | 94.2 | 99.5 | 105 | 99 | 103 | 87.6 | 95.7 | 95.1 | 91.6 | 102 | 96.3 | 66.9 | 94.5 | 97.6 | 81 | 97.9 | 104 | – |
| O=C(Nc1cccc(Cl)c1)Nc1ncc(CCNc2ncnc3ccsc23)s1 [SNS-314] | 1.9 | 1.8 | – | 2.9 | 9.2 | > 10 | – | 0.315 | 98.5 | 102 | 88.2 | 90.4 | 74.8 | 103 | 103 | 86.3 | 89.9 | 93.2 | – | – | – | – | – | 92.8 | 99 | 90.4 | 85.8 | 69 | 92.8 | 96.8 | 76.3 | 67.5 | 41.6 | – |
| CNC(=O)c1ccccc1Nc1cc(Nc2ccc(N3CCOCC3)cc2OC)ncc1C(F)(F)F [VS-4718] | 6.2 | 7 | 6.6 | 3.6 | 9 | – | – | 1.12 | 98.5 | 94.2 | 95.2 | 82.1 | 35.1 | 103 | 101 | 85.8 | 69.2 | 54.4 | 108 | 97 | 86.4 | 68.3 | 74.5 | 102 | 91.8 | 96.4 | 82.5 | 62.5 | 98.6 | 93.2 | 99.1 | 65 | 19.3 | 1.5 |
| O=C(CC(c1ccccc1)c1ccccc1)N1CCN(C(c2ccccc2)c2ccccc2)CC1 [Z160] | 0.1 | 0 | 0 | 2.6 | 2.9 | > 10 | > 10 | – | 101 | 99 | 99.1 | 97.2 | 88.6 | 93.7 | 99.1 | 94.9 | 99.8 | 100 | 104 | 92.8 | 104 | 93.9 | 114 | 99.9 | 103 | 97.1 | 92.9 | 67.8 | 88.7 | 104 | 88.5 | 95.6 | 57.7 | > 10 |
